A value given as a limit tells only on which side of the number the result lay.

The record followed here is patent publication US20070161637A1, “Substituted pyridin-2-ylamine analogues” (Neurogen Corporation, priority 2003, published 2007).

In this assay the target is T1, human capsaicin receptor (Homo sapiens, UniProt Q8NER1).
T1 construct: transfected with the pBK-CMV expression construct encoding the full length human capsaicin receptor; expressed in transfected cells; host or cells: HEK293, stably transfected clonal lines, plasmid pBK-CMV
T1 sequence (Q8NER1 whole entry): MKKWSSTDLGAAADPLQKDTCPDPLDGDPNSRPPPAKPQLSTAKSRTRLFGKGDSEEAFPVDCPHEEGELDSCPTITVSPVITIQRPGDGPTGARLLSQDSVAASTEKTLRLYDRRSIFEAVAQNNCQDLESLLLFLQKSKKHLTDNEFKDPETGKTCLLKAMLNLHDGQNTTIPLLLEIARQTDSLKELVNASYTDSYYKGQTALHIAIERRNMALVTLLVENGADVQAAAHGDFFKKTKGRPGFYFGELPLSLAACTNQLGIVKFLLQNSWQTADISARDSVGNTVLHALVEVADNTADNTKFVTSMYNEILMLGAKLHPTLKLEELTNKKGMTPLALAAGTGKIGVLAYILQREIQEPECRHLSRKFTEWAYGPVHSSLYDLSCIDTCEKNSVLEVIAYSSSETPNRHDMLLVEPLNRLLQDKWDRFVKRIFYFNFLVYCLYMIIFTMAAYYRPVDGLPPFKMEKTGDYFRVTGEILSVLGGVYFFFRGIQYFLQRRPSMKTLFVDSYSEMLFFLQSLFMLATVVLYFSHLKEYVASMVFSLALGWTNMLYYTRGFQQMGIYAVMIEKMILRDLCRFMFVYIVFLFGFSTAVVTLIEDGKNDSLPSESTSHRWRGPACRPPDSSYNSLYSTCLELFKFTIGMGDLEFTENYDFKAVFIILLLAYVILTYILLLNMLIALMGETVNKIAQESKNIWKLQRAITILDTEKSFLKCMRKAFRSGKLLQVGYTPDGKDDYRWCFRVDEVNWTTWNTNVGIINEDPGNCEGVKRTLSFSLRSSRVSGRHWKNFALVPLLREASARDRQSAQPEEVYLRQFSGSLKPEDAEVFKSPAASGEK
In words: Calcium mobilization assay, determination of antagonist activity (Example 6). Type of assay: cell-based. The following applies: concentration giving 50% decrease in the fluorescence response of cells expressing human capsaicin receptor exposed to capsaicin. How it is done: A cDNA encoding full length human capsaicin receptor (SEQ ID NO:1, 2 or 3 of U.S. Pat. No. 6,482,611) was subcloned in the plasmid pBK-CMV (Stratagene, La Jolla, Calif.) for recombinant expression in mammalian cells.
Human embryonic kidney (HEK293) cells were transfected with the pBK-CMV expression construct encoding the full length human capsaicin receptor using standard methods. The transfected cells were selected for two weeks in media containing G418 (400 μg/ml) to obtain a pool of stably transfected cells. Independent clones were isolated from this pool by limiting dilution to obtain clonal stable cell lines for use in subsequent experiments.
Cells transfected with expression plasmids (as described in Example 4) and thereby expressing human capsaicin receptor are seeded and grown to 70-90% confluency in FALCON black-walled, clear-bottomed 96-well plates (#3904, BECTON-DICKINSON, Franklin Lakes, N.J.). The culture medium is emptied from the 96 well plates and FLUO-3 AM calcium sensitive dye (Molecular Probes, Eugene, Oreg.) is added to each well (dye solution: 1 mg FLUO-3 AM, 440 μL DMSO and 440 μl 20% pluronic acid in DMSO, diluted 1:250 in Krebs-Ringer HEPES (KRH) buffer (25 mM HEPES, 5 mM KCl, 0.96 mM NaH2PO4, 1 mM MgSO4, 2 mM CaCl2, 5 mM glucose, 1 mM probenecid, pH 7.4), 50 μl diluted solution per well). Plates are covered with aluminum foil and incubated at 37° C. for 1-2 hours in an environment containing 5% CO2. After the incubation, the dye is emptied from the plates, and the cells are washed once with KRH buffer, and resuspended in KRH buffer.
To measure the ability of a test compound to agonize or antagonize a calcium mobilization response in cells expressing capsaicin receptors to capsaicin or other vanilloid agonist, the EC50 of the agonist capsaicin is first determined. An additional 20 μl of KRH buffer and 1 μl DMSO is added to each well of cells, prepared as described above. 100 μl capsaicin in KRH buffer is automatically transferred by the FLIPR instrument to each well. Capsaicin-induced calcium mobilization is monitored using either FLUOROSKAN ASCENT (Labsystems; Franklin, Mass.) or FLIPR (fluorometric imaging plate reader system; Molecular Devices, Sunnyvale, Calif.) instruments. Data obtained between 30 and 60 seconds after agonist application are used to generate an 8-point concentration response curve, with final capsaicin concentrations of 1 nM to 3 μM. […] software (Synergy Software, Reading, Pa.) is used to fit the data to the equation: y=a*(1/(1+(b/x)^c)) to determine the 50% excitatory concentration (EC50) for the response. In this equation, y is the maximum fluorescence signal, x is the concentration of the agonist or antagonist (in this case, capsaicin), a is the Emax, b corresponds to the EC50 value and c is the Hill coefficient. Determination Agonist Activity
Test compounds are dissolved in DMSO, diluted in 20 μl KRH buffer so that the final concentration of test compounds in the assay well is between 1 μM and 5 μM, and added to cells prepared as described above. The 96 well plates containing prepared cells and test compounds are incubated in the dark, at room temperature for 0.5 to 6 hours. It is important that the incubation not continue beyond 6 hours. Just prior to determining the fluorescence response, 100 μl capsaicin in KRH buffer at twice the EC50 concentration determined as described above is automatically added by the FLIPR instrument to each well of the 96 well plate for a final sample volume of 200 μl and a final capsaicin concentration equal to the EC50. The final concentration of test compounds in the assay wells is between 1 μM and 5 μM.
For orientation: Calcium flux is commonly read through the fluorescence of an indicator in the cells.
For `CC(C)(C)c1ccc(Nc2nc(Cl)nc(NCc3ccccc3F)n2)cc1` [Compound 34, N-(4-tert-Butyl-phenyl)-6-chloro-N′-(2-fluoro-benzyl)-[1,3,5]triazine-2,4-diamine], the concentration for half-maximal inhibition (IC50) was at most 1 µM.

With `Oc1nc(Nc2ccc(C(F)(F)F)cc2)nc(OCc2ccccc2C(F)(F)F)n1` [Compound 25, 4-(2-Trifluoromethyl-benzyloxy)-6-(4-trifluoromethyl-phenylamino)-[1,3,5]triazin-2-ol], the IC50 was at most 1 µM.

With `CC(C)(C)c1ccc(Nc2cc(OCc3ccccc3C(F)(F)F)ncn2)cc1` [Compound 8, (4-tert-Butyl-phenyl)-[6-(2-trifluoromethyl-benzyloxy)-pyrimidin-4-yl]-amine], the IC50 was at most 1 µM.

For the compound `FC(F)(F)c1ccc(Nc2nc(NCCN3CCOCC3)nc(OCc3ccccc3C(F)(F)F)n2)cc1` [Compound 28, N-(2-Morpholin-4-yl-ethyl)-6-(2-trifluoromethyl-benzyloxy)-N′-(4-trifluoromethyl-phenyl)-[1,3,5]triazine-2,4-diamine], the IC50 is at most 1 µM.

On to `CC(C)(C)c1ccc(Nc2cc(NCc3ccccn3)ncn2)cc1` [Compound 56, N-(4-tert-Butyl-phenyl)-N′-pyridin-2-ylmethyl-pyrimidine-4,6-diamine], for which the IC50 is at most 1 µM.

As to `CC(C)(C)c1ccc(Nc2nc(N)nc(NCc3ccccc3F)n2)cc1` [Compound 43, N-(4-tert-Butyl-phenyl)-N′-(2-fluoro-benzyl)-[1,3,5]triazine-2,4,6-triamine], the 50% inhibitory concentration (IC50) was at most 1 µM.

As to `FC(F)(F)c1ccc(Nc2nc(OCc3ccccc3C(F)(F)F)nc(OC3CCCC3)n2)cc1` [Compound 19, [4-Cyclopentyloxy-6-(2-trifluoromethyl-benzyloxy)-[1,3,5]triazin-2-yl]-(4-trifluoromethyl-phenyl)-amine], the IC50 was at most 1 µM.

Consider `CC(C)(C)c1ccc(Nc2cc(NCc3ccncc3)ncn2)cc1` [Compound 58, N-(4-tert-Butyl-phenyl)-N′-pyridin-4-ylmethyl-pyrimidine-4,6-diamine], for which the IC50 is at most 1 µM.

Turning to `FC(F)(F)c1ccc(Nc2nc(OCc3ccccc3C(F)(F)F)nc(-c3ccccc3)n2)cc1` [Compound 22, [4-Phenyl-6-(2-trifluoromethyl-benzyloxy)-[1,3,5]triazin-2-yl]-(4-trifluoromethyl-phenyl)-amine], the concentration for half-maximal inhibition (IC50) is at most 1 µM.

`CC(C)(C)c1ccc(Nc2nc(N)nc(OCc3ccccc3Cl)n2)cc1` [Compound 30, N-(4-tert-Butyl-phenyl)-6-(2-chloro-benzyloxy)-[1,3,5]triazine-2,4-diamine]: the concentration for half-maximal inhibition (IC50) is at most 1 µM.

For `CC(C)(C)c1ccc(Nc2nc(OCc3ccccc3Cl)nc(OCc3ccccc3Cl)n2)cc1` [Compound 11, [4,6-Bis-(2-chloro-benzyloxy)-[1,3,5]triazin-2-yl]-(4-tert-butyl-phenyl)-amine], the IC50 was at most 1 µM.

As to `CC(C)(C)c1ccc(Nc2nc(Cl)nc(NCc3ccccc3C(F)(F)F)n2)cc1` [Compound 36, N-(4-tert-Butyl-phenyl)-6-chloro-N′-(2-trifluoromethyl-benzyl)-[1,3,5]triazine-2,4-diamine], the IC50 is at most 1 µM.

As for `CCOc1nc(Nc2ccc(C(F)(F)F)cc2)nc(OCc2ccccc2C(F)(F)F)n1` [Compound 20, [4-Ethoxy-6-(2-trifluoromethyl-benzyloxy)-[1,3,5]triazin-2-yl]-(4-trifluoromethyl-phenyl)-amine], the IC50 is at most 1 µM.

Take `CCCCNc1nc(Nc2ccc(C(F)(F)F)cc2)nc(OCc2ccccc2C(F)(F)F)n1` [Compound 62, N-Butyl-6-(2-trifluoromethyl-benzyloxy)-N′-(4-trifluoromethyl-phenyl)-[1,3,5]triazine-2,4-diamine]: the half-inhibitory concentration (IC50) was at most 1 µM.

On to `COc1ccccc1COc1nc(Cl)nc(Nc2ccc(C(C)(C)C)cc2)n1` [Compound 3, (4-tert-Butyl-phenyl)-[4-chloro-6-(2-methoxy-benzyloxy)-[1,3,5]triazin-2-yl]-amine], for which the concentration for half-maximal inhibition (IC50) is at most 1 µM.

As for `CC(C)(C)c1ccc(Nc2nc(OCc3ccccc3C(F)(F)F)nc(OCc3ccccc3C(F)(F)F)n2)cc1` [Compound 14, [4,6-Bis-(2-trifluoromethyl-benzyloxy)-[1,3,5]triazin-2-yl]-(4-tert-butyl-phenyl)-amine], the IC50 was at most 1 µM.

As for `FC(F)(F)c1ccc(Nc2nc(Cl)nc(OCc3ccccc3C(F)(F)F)n2)cc1` [Compound 18, [4-Chloro-6-(2-trifluoromethyl-benzyloxy)-[1,3,5]triazin-2-yl]-(4-trifluoromethyl-phenyl)-amine], the IC50 was at most 1 µM.

As for `FC(F)(F)c1ccc(Nc2nc(NC3CCC3)nc(OCc3ccccc3C(F)(F)F)n2)cc1` [Compound 63, N-Cyclobutyl-6-(2-trifluoromethyl-benzyloxy)-N′-(4-trifluoromethyl-phenyl)-[1,3,5]triazine-2,4-diamine], the half-maximal inhibitory concentration (IC50) was at most 1 µM.

As for `CNc1nc(NCc2ccccc2Cl)nc(Nc2ccc(C(C)(C)C)cc2)n1` [Compound 41, N-(4-tert-Butyl-phenyl)-N′-(2-chloro-benzyl)-N″-methyl-[1,3,5]triazine-2,4,6-triamine], the IC50 is at most 1 µM.

With `FC(F)(F)c1ccc(Nc2nc(NC3CCCC3)nc(OCc3ccccc3C(F)(F)F)n2)cc1` [Compound 65, N-Cyclopentyl-6-(2-trifluoromethyl-benzyloxy)-N′-(4-trifluoromethyl-phenyl)-[1,3,5]triazine-2,4-diamine], the IC50 was at most 1 µM.

With `FC(F)(F)c1ccc(Nc2nc(OCc3ccccc3C(F)(F)F)nc(N3CCOCC3)n2)cc1` [Compound 21, [4-Morpholin-4-yl-6-(2-trifluoromethyl-benzyloxy)-[1,3,5]triazin-2-yl]-(4-trifluoromethyl-phenyl)-amine], the IC50 is at most 1 µM.

With `CC(C)CNc1nc(Nc2ccc(C(F)(F)F)cc2)nc(OCc2ccccc2C(F)(F)F)n1` [Compound 66, N-Isobutyl-6-(2-trifluoromethyl-benzyloxy)-N′-(4-trifluoromethyl-phenyl)-[1,3,5]triazine-2,4-diamine], the IC50 was at most 1 µM.

For `COc1ccc(CNc2cc(Nc3ccc(C(C)(C)C)cc3)ncn2)cc1` [Compound 53, N-(4-tert-Butyl-phenyl)-N′-(4-methoxy-benzyl)-pyrimidine-4,6-diamine], the IC50 is at most 1 µM.

In the case of `CC(C)(C)c1ccc(Nc2nc(NCc3ccccc3Cl)nc(NCc3ccccc3Cl)n2)cc1` [Compound 54, N-(4-tert-Butyl-phenyl)-N′,N″-bis-(2-chloro-benzyl)-[1,3,5]triazine-2,4,6-triamine], the IC50 is at most 1 µM.

For the compound `COc1ccccc1COc1nc(N)nc(Nc2ccc(C(C)(C)C)cc2)n1` [Compound 32, N-(4-tert-Butyl-phenyl)-6-(2-methoxy-benzyloxy)-[1,3,5]triazine-2,4-diamine], the IC50 was at most 1 µM.

Turning to `CC(C)(C)c1ccc(Nc2nc(OCc3ncccc3Cl)nc(OCc3ncccc3Cl)n2)cc1` [Compound 16, [4,6-Bis-(3-chloro-pyridin-2-ylmethoxy)-[1,3,5]triazin-2-yl]-(4-tert-butyl-phenyl)-amine], the IC50 is at most 1 µM.

For the compound `COc1cc2c(cc1OC)CN(c1nc(Cl)nc(Nc3ccc(C(C)(C)C)cc3)n1)CC2` [Compound 6, (4-tert-Butyl-phenyl)-[4-chloro-6-(6,7-dimethoxy-3,4-dihydro-1H-isoquinolin-2-yl)-[1,3,5]triazin-2-yl]-amine], the IC50 is at most 1 µM.

Broadly, the IC50 is the concentration needed to halve the response being measured.
